For assay [1], the system named is normal human epidermal melanocytes (NHEM). Briefly: Melanin synthesis under stimulated condition (L-tyrosine-induced, OD at 405 nm). The settings on record: tested at 5 µg/ml, L-tyrosine 1 mM, 10 days. In kind it is cell-based. On the procedure:
More specifically, the effect of the compound was evaluated on the following parameters: • 1. […] Melanin synthesis in NHEM stimulated by […]. • 3. […] For the tyrosinase activity assay the following concentrations were tested: 0.33, 1, 3, 9, 27 and 81 mg/ml (the spray-dried cloudberry powder was dissolved in assay buffer). For the melanin synthesis and melanocyte dendricity assay the following concentrations were tested: 0.33, 1 and 3 mg/ml (the spray-dried cloudberry powder was dissolved in culture medium). Melanocytes were seeded in 24-well plates and cultured in their culture medium for 24 hours. The medium was then replaced by culture medium containing or not (stimulated control) the inducer (L-Tyrosine) and the test compound of the reference (lipoic acid at 5 µg/ml). […] In parallel, a non-stimulated control was performed. Each experimental condition was performed in n=3. At the end of incubation, melanin was extracted by cell lysis using a 0.5 N NaOH solution. The optical density (OD) of each experimental point was measured at 405 nm and melanin quantity was calculated using melanin standards. Results were expressed in µg/ml of melanin and in percentage of inhibition compared to control.

The subject of assay [2] is co-culture of NHEM and normal human epidermal keratinocytes (NHEK). Briefly: Melanocyte dendricity under stimulated condition (IBMX, immunofluorescent labeling and image analysis). In kind it is cell-based. The settings on record: tested at 0.025 µg/ml, IBMX 200 µM, 72 hours, read-out: % of inhibition of the formation of dendrites by the melanocytes. As to the method: Two further assays were carried out to evaluate the whitening effect of the powder, i.e. melanin synthesis in NHEM stimulated by […] and melanocyte dendricity in a co-culture of NHEM and normal human epidermal keratinocytes (NHEK) in presence of IBMX (a melanocyte dendricity stimulating agent) using in situ immunofluorescent labeling and image analysis. As reference substances in these tests lipoic acid and vincristine, respectively, were used.
More specifically, the effect of the compound was evaluated on the following parameters: • 1. Activity of tyrosinase enzyme extracted from NHEM (acellular assay). • 2. Melanin synthesis in NHEM stimulated by […]. • 3. Melanocyte dendricity in a co-culture of NHEM and normal human epidermal keratinocytes (NHEK) in presence of IBMX (a melanocyte dendricity stimulating agent) using in situ immunofluorescent labeling and image analysis.
For the tyrosinase activity assay the following concentrations were tested: 0.33, 1, 3, 9, 27 and 81 mg/ml (the spray-dried cloudberry powder was dissolved in assay buffer). […]
Images were acquired of the wells (10 photos per well). The labeling was quantified by the measurement of the dendrite fluorescence area normalized to the total number of melanocytes.

Broadly, the inhibition is the change of the read-out against control, counted positive when it falls.

Take `O=C(O)CCCC[C@@H]1CCSS1` (racemic) [lipoic acid]: the “% of inhibition of L-tyrosine-induced melanin synthesis” value in assay [1] is reported as 108%.

Consider `CC[C@]1(O)C[C@H]2CN(CCc3c([nH]c4ccccc34)[C@@](C(=O)OC)(c3cc4c(cc3OC)N(C=O)[C@H]3[C@@](O)(C(=O)OC)[C@H](OC(C)=O)[C@]5(CC)C=CCN6CC[C@]43[C@@H]65)C2)C1` [vincristine], for which, in assay [2], the inhibition at 0.025 µg/mL is 175%.

These data come from patent EP3365068B1, “COSMETIC COMPOSITIONS FOR SKIN WHITENING” (Lumene Oy, priority 2015, dated 2017).
